In patent US6093720A, “Trans apovincaminic acid ester derivatives” (Richter Gedeon Vegyeszeti GmbH, priority 1995, dated 2000):
Several values for one entry are separate records, joined by “and”; a condition that tells them apart may be missing. Equal values may be shown once. Entries after “also recorded” stand apart in the source; their conditions may differ. Where a name gives a salt, the structure may show the parent alone.

Experiments:
[1] = Diazepam-induced anterograde amnesia (passive avoidance); format: in vivo, NMRI mice; conditions: for Inhibition of the diazepam-induced amnesia %: 1 hour before learning, diazepam 3 mg/kg i.p.; for antiamnesic activity, in words: diazepam-induced anterograde amnesia, 0.1 and 10 mg/kg p.o.
From the text: 2. Diazepam-Induced Anterograde Amnesia C. L. Broekkamp et al.: The comparative effects of benzodiazepines, progabide and PK 9084 on acquisition of passive avoidance in mice [Psychopharmacology (Berlin) 83, 122-125 (1984)]. The memory test was accomplished on NMRI mice weighing 25 to 28 g each by using the passive avoidance, a method based on the genetically determined nyctophilic behavior of rodents. During the learning period, the pre-selected animals (mice entering the dark space from the illuminated space within 30 seconds) were placed in an illuminated space. After entering the dark space, the animal received an electric shock (1 mA for […]) onto its planta within 30 seconds, then the time until entry to the dark space (latency period) was registered. After 24 hours, the animals were placed again in the illuminated space and the time until crossing over to the dark space (retention time=T with a time limit of 300 seconds) was measured. For inducing an anterograde amnesia, the animals were treated intraperitoneally with 3 mg/kg of diazepam 30 minutes before learning. The compounds were administered orally in 0.1 or 10 mg/kg doses, respectively 1 hour before learning. [formula]

[2] = Protection against ischemia-induced injury of memory; format: in vivo; conditions: oral dose range between 1 and 10 mg/kg
[3] = system: Fe^2+ -Induced Lipid Peroxidation in Brain Homogenate; assay: Fe^2+-induced (non-enzymatic) lipid peroxidation in brain homogenate (ANI); format: biochemical, rat (Hannover-Wistar); conditions: for antioxidant activity in Fe^2+-induced lipid peroxidation, in words: comparison with idebenone, DL-α-tocopherol or silymarin; for IC50: Fe^2+-induced lipid peroxidation, rat brain homogenate, 37° C., 20 minutes, pH 7.4
Description: Effect on the Fe^2+ -Induced Lipid Peroxidation in Brain Homogenate
After decapitating Hannover-Wistar rats weighing 150-220 g each, the whole brain was homogenized in 9 volumes of ice-cold Krebs-Ringer's buffer containing 15 mM HEPES, (4-(2-hydroxyethyl)-1-piperazinylethanesulfonic acid) (pH 7.4), 140 mM NaCl7 3.6 mM KCl, 1.5 mM CaCl2, 0.7 mM MgCl2, 1.4 mM KH2 PO4 and 10 glucose. Then the protein content of the solution was determined and adjusted to 10 mg/ml concentration.
After adding the inhibitory agent to be tested in a volume of 5 μl to 200 μl of the homogenate, the incubation mixture was incubated at 37° C. for 20 minutes. The Fe^2+ -induced lipid peroxidation was accomplished by adding 5 μl of 8 mM Fe2 (NH4)2 (SO4)2 solution. After passing of the incubation time, the reaction was stopped by adding 1 ml of a stopping solution containing 0.8 M HCl and 12.5% trichloroacetic acid, then the samples were centrifuged at 2000 g in a Janetzki K70 apparatus at 4° C. for 10 minutes.
To a 0.5 ml portion of the supernatant, 1 ml of 1% thiobarbituric acid solution was added, then the samples were placed in a water bath of 100° C. for 20 minutes. The color intensity developed was determined at 535 nm with a Hitachi 150-20 spectrophotometer by using malondialdehyde bis(diethylacetal) as reference compound.
ANI: non-enzymatically (Fe^2+) induced lipid peroxidation test

[4] = system: NADPH-Induced Lipid Peroxidation in Brain Microsomes; assay: NADPH-induced (enzymatic) lipid peroxidation in brain microsomes (AEI); format: biochemical, rat (male Hannover-Wistar); conditions: for IC50: NADPH-induced lipid peroxidation, rat brain microsomes, 37° C., 20 minutes, pH 6.8; for inhibition of NADPH-induced lipid peroxidation relative to silymarin (times as strongly): compared with silymarin
Description: Effect on the NADPH-Induced Lipid Peroxidation in Brain Microsomes
Male Hannover-Wistar rats with a body weight of 150-250 g were used for the preparation of microsomes. After decapitation, the whole brain was removed and homogenized in a 10-fold volume of ice-cold 0.25 M saccharose solution. The homogenate was centrifuged in a Hitachi CR 26H equipment at 15000 g at 4° C. for 10 minutes, then the supernatant was collected and centrifuged in a Hitachi SCP 85H apparatus at 78000 g at 4° C. for 60 minutes. After suspending the precipitate in 0.15 M KCl solution, the protein content of the obtained solution was determined and then adjusted to 10 mg/ml concentration. The microsome thus obtained was frozen in a dry ice-acetone mixture and stored at -70° C. until use. The components of the incubation mixture were: 50 mM TRIS-HCl (pH 6.8), 0.2 mM FeCl3, 1 mM KH2 PO4, 0.5 mM ADP, 0.2 mg of microsomes as well as the compound to be tested. The incubation was carried out with a final volume of 1 ml and with an incubation time of 20 minutes at a temperature of 37° C. The lipid peroxidation was induced by adding 0.4 mM NADPH.
The formation of malondialdehyde was determined by using thiobarbituric acid. After stopping the reaction, 1 ml of 1% thiobarbituric acid solution each was weighed to the samples, which were then placed in a water bath of about 100° C. for 10 minutes. Subsequently, the samples were centrifuged at 2000 g in a Janetzki K70 apparatus at 4° C. for 10 minutes. The absorbance values of the colored supernatant were measured at 535 nm in a Hitachi 150-20 spectrophotometer. Malondialdehyde bis(diethylacetal) was used as reference compound.

[5] = Electroshock-induced retrograde amnesia model; format: in vivo; conditions: oral dose range between 0.1 and 10 mg/kg
[6] = Antiischemic effect after oral administration; format: in vivo
[7] = Antiamnesic activity in rats; format: in vivo
[8] = Antiischemic effect on bilateral (carotid) artery ligation model, mortality; format: in vivo, mice; conditions: for mortality at 2 mg/kg: 24 h, 30 minutes before 5-minute bilateral carotid ligation, control mortality 70%
Description: 1. Antiischemic Effect (On Bilateral Artery Ligation Model)
N. Himori et al.: Cerebral ischemia model with conscious mice involvement of NMDA receptor activation and derangement of learning and memory ability [J. Pharmacol. Meth. 23, 311-327 (1990)].
Carotid arteries of mice (weighing 30 to 32 g each) were exposed bilaterally under anaesthesia by 450 mg/kg of intraperitoneal (i.p.) chloral hydrate. The sympathetic and vagal nerves were separated and a loose ligation was bilaterally placed below the carotid arteries. Both ends of the ligation were led out on the back, behind the ears. Next day, in conscious state both ends of the ligation were pulled resulting in the stopping of blood supply through the carotid arteries. This was maintained for 5 minutes, then released to provide the reperfusion. The number of animals died during the 5-minute period and the following 24 hours were registered. The calculation of significance was performed by the chi^2 test. The pre-treatment with the compound was carried out intraperitoneally (i.p.) 30 minutes before the ligation.
The transient dramatic decrease in the cerebral blood supply, then the starting of reperfusion after stopping the ligation leads to the formation of extremely toxic oxygen free radicals (superoxide radical, hydrogen peroxide). […] [ED50 is the dose (as mg/kg) diminishing the mortality by 50% in comparison to the untreated is control group].

[9] = "Focal" ischemia models elicited in one well-determined area of the brain; format: in vivo

| Structure (SMILES) | Inhibition of the diazepam-induced amnesia % ([1]; 0.1 mg/kg p.o.) [%] | Inhibition of the diazepam-induced amnesia % ([1]; 10.0 mg/kg p.o.) [%] | antiamnesic activity, in words [1] | protection against ischemia-induced injury of memory, in words [2] | antioxidant activity in Fe^2+-induced lipid peroxidation, in words [3] | IC50 [4] | antioxidant effect in NADPH-induced lipid peroxidation, in words ([4]; comparison with reference compounds) | antioxidant activity compared with idebenone or vinpocetine, in words ([4]; summary statement, in vitro and in vivo) | protective action, in words [5] | antiischemic effect, in words [6] | antiamnesic activity, in words [7] | mortality at 2 mg/kg ([8]; Mus musculus, ip, 2 mg/kg i.p.) [%] | ED50 ([8]; Mus musculus, ip, dose diminishing the mortality by 50% in comparison to the untreated control group) [mg/kg] | antiischemic activity, in words ([8]; bilateral artery ligation, mice, 2 mg/kg i.p.) | activity on focal ischemia models, in words [9] | IC50 [3] | inhibition of NADPH-induced lipid peroxidation relative to silymarin (times as strongly) [4] |
| --- | --- | --- | --- | --- | --- | --- | --- | --- | --- | --- | --- | --- | --- | --- | --- | --- | --- |
| CC[C@@]12C=C(C(=O)OCCOC(C)=O)n3c4c(c5ccccc53)CCN(CCC1)[C@@H]42 [Compound 2705279, (-)-trans apovincaminic acid 2-acetoxyethyl ester(3β,16α)monohydrochloride] | 79 | 119 | particularly effective; also recorded: significant protective effect in both doses used and an activity by far exceeding that of vinpocetine; also recorded: most active in this field | protected against the ischemia-induced injury of memory | about twice as active as idebenone or DL-α-tocopherol | 6.3 µM and < 10 µM | comparable to that of idebenone | surpasses both in vitro and in vivo that of idebenone or vinpocetine | dose-dependent protective action | can be measured after oral administration, too | could well be measured in rats | 10 to 30 | 0.76 | most active | active |  |  |
| CC[C@]12C=C(C(=O)OCCOC(=O)c3ccccc3)n3c4c(c5ccccc53)CCN(CCC1)[C@H]42 [Compound 1011036, (-)-trans apovincaminic acid 2-(benzoyloxy)ethyl ester(3α,16β)hydrochloride] | 23 | 16 |  |  | about twice as active as idebenone or DL-α-tocopherol | 7.7 µM and < 10 µM |  |  |  |  |  | 50 |  |  |  | 9.3 µM and < 10 µM | about 20 times |
| CCC(=O)OCCOC(=O)C1=C[C@@]2(CC)CCCN3CCc4c(n1c1ccccc41)[C@@H]32 [Compound 1011038, (+)-trans apovincaminic acid 2-(propionyloxy)ethyl ester(3α,16β)hydrochloride] | 64 | 24 | particularly effective |  | about twice as active as idebenone or DL-α-tocopherol | 8.4 µM and < 10 µM |  |  |  |  |  | 60 |  |  |  | 8.7 µM and < 10 µM | about 20 times |
| CC[C@@]12C=C(C(=O)OCCO)n3c4c(c5ccccc53)CCN(CCC1)[C@@H]42 [Compound 1010885, (-)-trans apovincaminic acid 2-hydroxyethyl ester(3β,16α)] | 74 | 65 |  |  | more strongly than idebenone | 9.7 µM |  |  |  |  |  | 60 |  |  |  | 15.5 µM | about 20 times |
